Results taken from patent publication US20090247589A1, “Monocarboxylates for modifying macrophage function” (The Brigham and Women's Hospital, Inc., priority 2006, published 2009).

Assays:
[1] = system: RAW 264.7 cells; assay: Proinflammatory cytokine production by RAW 264.7 cells stimulated with IFN-γ plus uric acid; format: cell-based, murine
[2] = system: RAW 264.7 cells; settings: MTT assay
Method: (§1) The dose of nicotinic acid was 60-80 μmol/kg/day, corresponding to 500-1000 mg of nicotinic acid in a 70 kg human (depending on bioavailability).

[3] = system: cardiac graft; settings: continuous infusion by osmotic minipumps for 4 weeks; 60-80 μmol/kg/day; outliers excluded
Method: as §1

[4] = system: RAW 264.7 cells; settings: LPS-stimulated RAW 264.7 cells; concomitant administration

SMILES | abrogation of uric acid + IFN-γ stimulated production of proinflammatory cytokines such as TNF-α ([1]; concomitant administration) | effect on cell proliferation [2] | graft condition (histology) compared to saline-treated controls [3] | production of IL-6 [4] | production of TNF-α [4] | production of proinflammatory cytokines such as TNF-α (stimulating effect) ([1]; uric acid together with other macrophage stimulators such as IFN-γ)
O=C(O)c1cccnc1 [nicotinic acid] | largely abrogated | nor nicotinic acid have any significant effect | near normal grafts | significantly reduced | significantly reduced | –
O=c1[nH]c(=O)c2[nH]c(=O)[nH]c2[nH]1 [uric acid] | – | – | – | – | – | synergistically, further stimulating production
